In US12661353B2, “SPT5 inhibitors and uses thereof” (Yeda Research and Development Co. Ltd., priority 2020, dated 2026):

Experiments:
[1] = test system: HSPA6 and HSPA1A; assay: mRNA of heat shock genes HSPA6 and HSPA1A, HeLa, RT-qPCR; type: cell-based, human
Protocol: RNA analysis—Total RNA was extracted using Tri-reagent (Bio-Lab Chemicals) and Direct-Zol™ RNA MiniPrep kit (Zymo Research). Following, cDNA was synthesized from […] of total RNA using a High-Capacity cDNA Reverse Transcription Kit (ABI, Thermo Fisher Scientific). cDNA samples were analyzed by quantitative PCR (qPCR) in a ViiA 7 Real-Time PCR System using Fast qPCRBIO SYBR Green Mix (PCR Biosystems).
A major limitation of KD and KO studies is the prolonged deficiency of the target protein. Small molecule inhibitors on the other hand, inactivate their target shortly following their application. […] Reads were aligned to the human genome and normalized expression of each gene was determined. Subsequently, the following ratios were calculated: TNFα vs. control, which describes the response to TNFα; SPI-21 vs. control, which describes the effect of SPI-21 on gene expression under basal conditions; and SPI-21+TNFα vs. TNFα, which describes the effect of SPI-21 under TNFα-induced conditions. […] To test this possibility, cells were treated with SPI-21 for 2 and 24 hours and the levels of the heat shock genes HSPA6 and HSPA1A were determined by RT-qPCR. […] To further test the idea of kinetically distinct Spt5 target genes, the global effect of long-term SPI-21 treatment (24 hours) was determined by RNA-seq and the affected genes between the short and long-term treatments were compared. […]

[2] = test system: mutant (Q111) Htt; assay: Newly synthesized Htt transcripts, 4sU metabolic labeling, Q111 cells; type: cell-based, mouse; conditions: 4sU for 2 hours
Protocol: Metabolic labeling of newly synthesized RNA with 4-thiouridine (4sU)—STHdh Q111 and STHdh Q7 cells (collected from 10 cm dishes) were treated for 30 minutes with DMSO (vehicle control) or the tested SPI compound (e.g., SPJ-21). Following, 4-thiouridine (4sU, 150 μM final concentration) was added for additional 2 hours. The labeling was terminated by removing the 4sU-containing medium and washing the cells 3 times with phosphate-buffered saline (PBS). Total RNA was extracted as described above. […]
Huntington's disease (HD) is an inherited genetic disorder caused by expansion trinucleotide CAG repeats (36 and higher) encoding glutamine (Q) in the huntingtin (Htt) gene. […] The two cell lines were treated for 48 hours with the identified SPIs and following the levels of Htt mRNA were determined. […] Moreover, the levels measured from the second exon relative to the first were fairly higher in Q7 compared to Q111 and this small difference was kept all along the gene. […]
In assays conducted for showing that the selective effect on mutant Htt is at the transcription level, the cells were metabolically labeled with 4-thio-uridine (4sU) for 2 hours in the presence of DMSO of the indicated SPI analogs. […] Newly synthesized Htt transcript levels were determined by RT-qPCR.

## COc1ccc(C=CC(=O)c2cc(O)ccc2O)cc1 [SPI-21]
[1]; 2 hours treatment
  levels of heat shock genes HSPA6 and HSPA1A: strongly up-regulated
[1]; 24 hours treatment
  extent of activation of HSPA6 and HSPA1A: substantially smaller
[2]
  levels of newly synthesized Q111 Htt: diminished
